Structures are written as SMILES.

The assay addresses T1, MARK4 (Homo sapiens, UniProt Q96L34).
T1 construct: purchased Thermo Fisher Scientific (Life Technologies) SelectScreen
Nature of the assay: SelectScreen Z'LYTE. The assay is classed as biochemical. Put shortly:
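SelectScreen broad panel; activity (Z'LYTE, Adapta) plus binding formats. ATP: Km app for CSF1R Z'LYTE; 10 for CAMK1 Adapta. Readout = % per kinase.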

T1 sequence (Q96L34 whole entry): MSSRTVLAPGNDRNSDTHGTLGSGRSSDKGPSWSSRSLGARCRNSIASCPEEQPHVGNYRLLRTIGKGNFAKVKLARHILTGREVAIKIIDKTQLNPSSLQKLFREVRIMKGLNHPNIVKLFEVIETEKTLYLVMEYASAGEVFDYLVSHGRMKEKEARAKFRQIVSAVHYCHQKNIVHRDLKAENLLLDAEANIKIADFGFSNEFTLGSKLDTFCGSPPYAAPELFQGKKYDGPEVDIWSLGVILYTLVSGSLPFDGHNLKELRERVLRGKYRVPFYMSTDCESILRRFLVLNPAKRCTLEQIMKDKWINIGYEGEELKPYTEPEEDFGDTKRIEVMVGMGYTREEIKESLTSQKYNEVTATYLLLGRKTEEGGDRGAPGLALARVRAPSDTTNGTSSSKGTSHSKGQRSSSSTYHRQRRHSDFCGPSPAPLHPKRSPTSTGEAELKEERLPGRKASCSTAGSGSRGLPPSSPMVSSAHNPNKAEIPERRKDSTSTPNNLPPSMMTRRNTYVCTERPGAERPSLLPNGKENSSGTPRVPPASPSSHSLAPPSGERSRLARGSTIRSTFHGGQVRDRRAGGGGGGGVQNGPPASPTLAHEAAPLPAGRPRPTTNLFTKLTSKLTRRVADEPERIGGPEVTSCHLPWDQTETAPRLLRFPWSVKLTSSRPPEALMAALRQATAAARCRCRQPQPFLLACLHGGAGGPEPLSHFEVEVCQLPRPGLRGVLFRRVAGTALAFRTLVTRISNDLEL

In general, inhibition refers to the change of the read-out against control, counted positive when it falls. As to `CN(C(=O)CN1CCOCC1)c1ccc2sc3c(-c4cccc5c(=O)cc(N6CC7CCC(C6)O7)oc45)cccc3c2c1` [NU5455], the inhibition at 1 µM is -2%.

Source of the values: PMC6934184, “Selective DNA-PKcs inhibition extends the therapeutic index of localized radiotherapy and chemotherapy” (The Journal of Clinical Investigation, 2019).
